{"source": "patent EP4635969A1", "about": "“NOVEL GLUCOCORTICOID, METHOD FOR PREPARING SAME, AND USE THEREOF” (Tianjin Pharmaceutical Biotechnology Co., Ltd., priority 2022, dated 2024)"}
{"molecular_target": "T1, glucocorticoid receptor (GR) (Homo sapiens, UniProt P04150)", "T1 sequence (P04150 521-777)": "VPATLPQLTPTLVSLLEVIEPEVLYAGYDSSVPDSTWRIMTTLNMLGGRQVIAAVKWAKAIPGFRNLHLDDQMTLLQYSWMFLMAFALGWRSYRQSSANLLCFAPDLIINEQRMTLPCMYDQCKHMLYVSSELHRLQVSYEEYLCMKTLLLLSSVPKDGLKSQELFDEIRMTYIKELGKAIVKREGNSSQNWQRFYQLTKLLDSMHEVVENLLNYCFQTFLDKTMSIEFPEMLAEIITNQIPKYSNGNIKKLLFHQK", "test": "Assay for agonist activity on glucocorticoid receptor (luciferase reporter, HEK293 cells transfected with pBIND-GR plasmid)", "assay_type": "cell-based", "details": "HEK293 cells transfected with pBIND-GR, luciferase signal; read-out: GR agonist EC50", "description": "Pharmacological Example 1: Assay for Agonist Activity on Glucocorticoid Receptor (GR)\nThe test compounds were subjected to a 4-fold serial dilution starting from an initial concentration of 10 µ M, generating a 10-point concentration gradient with duplicate wells for each concentration. The blank control consisted of 0.1 % DMSO.\nThe HEK293 stable cell line […] transfected with glucocorticoid receptor (GR) (ICE Bioscience, Lot No. TYP-20220519) was cultured in Dulbecco's Modified Eagle Medium (DMEM) supplemented with 10% fetal bovine serum (FBS) and 200 µ g/ml Hygromycin B in a cell incubator containing 5% CO2 at 37 °C. The spent medium was aspirated and the cells were washed once with phosphate-buffered saline (PBS). Then, 1 mL of TrypLE™ Express solution was added, and the cells were incubated at 37 °C for approximately 2 min. When the cells detached from the bottom of the cell culture dish, approximately 5 mL of pre-warmed complete medium at 37 °C was added. The cell suspension was gently pipetted with a pipette to dissociate clumped cells. The cell suspension was transferred to a sterile centrifuge tube and centrifuged at 1000 rpm for 5 min to pellet the cells for experiments or subculture.\nHEK293 cells were digested and seeded into 6-cm culture dishes. The pBIND-GR plasmid was transfected into the HEK293 cells using a transfection reagent, resulting in HEK293 cells successfully transfected with the pBIND-GR plasmid. The cells were resuspended in phenol red-free DMEM medium containing 5% charcoal-stripped serum, counted, and then seeded into 96-well plates. The test compounds were added, and the plates were then incubated in an incubator. The luminescence signal values were measured using a multimode microplate reader following the instructions of the luciferase assay kit. The EC50 values of each test compound were calculated using the nonlinear fitting formula with GraphPad Prism 8.0 software.", "units": {"EC50": "nM"}}
{"smiles": "C[C@]12C=CC(=O)C=C1CC[C@H]1[C@@H]3C[C@H]4OC(c5ccc(CC6CCOC6=O)cc5)O[C@@]4(C(=O)CO)[C@@]3(C)C[C@H](O)[C@@]12F", "note": "(stereo partly drawn) [Compound 43, (6aS,6bR,7S,8aS,8bS,11aR,12aS,12bS)-6b-Fluoro-7-hydroxy-8b-(2-hydroxyacetyl)-6a,8a-dimethyl-10-(4-((2-oxotetrahydrofuran-3-yl)methyl)phenyl)-1,2,6a,6b,7,8,8a,8b,11a,12,12a,12b-dodecah ydro-4H-naphtho[2',1':4,5]indeno[1,2-d][1,3]dioxol-4-one]", "EC50": 7.71}
{"smiles": "C[C@]12C=CC(=O)C=C1CC[C@@H]1[C@@H]2[C@@H](O)C[C@@]2(C)[C@H]1C[C@H]1OC(c3ccc(CNC4COC(=O)C4)cc3)O[C@]12C(=O)CO", "note": "(stereo partly drawn) [Compound 33, (6aR,6bS, 7S,8aS,8bS,11aR,12aS,12bS)-7-Hydroxy-8b-(2-hydroxyacetyl)-6a,8a-dimethyl-10-(4-(( (5-oxotetrahydrofuran-3-yl)amino)methyl)phenyl)-1,2,6a,6b,7,8,8a,8b,11a,12,12a,12b-dodecahydr o-4H-naphtho[2',1':4,5]indeno[1,2-d][1,3]dioxol-4-one]", "EC50": 4.38}
{"smiles": "C[C@]12C=CC(=O)C=C1CC[C@@H]1[C@@H]2[C@@H](O)C[C@@]2(C)[C@H]1C[C@H]1OC(c3ccc(COC4CCOC4=O)cc3)O[C@]12C(=O)CO", "note": "(stereo partly drawn) [Compound 28, (6aR,6bS, 7S,8aS,8bS,11aR,12aS,12bS)-7-Hydroxy-8b-(2-hydroxyacetyl)-6a,8a-dimethyl-10-(4-(( (2-oxotetrahydrofuran-3-yl)oxy)methyl)phenyl)-1,2,6a,6b,7,8,8a,8b,11a,12,12a,12b-dodecahydro-4H-naphtho[2',1':4,5]indeno[1,2-d][1,3]dioxol-4-one]", "EC50": 4.24}
{"smiles": "C[C@]12C=CC(=O)C=C1[C@@H](F)C[C@H]1[C@@H]3C[C@H]4OC(c5cnc(CSC6CCOC6=O)nc5)O[C@@]4(C(=O)CO)[C@@]3(C)C[C@H](O)[C@@]12F", "note": "(stereo partly drawn) [Compound 52, (2S,6aS,6bR,7S,8aS,8bS,11aR,12aS,12bS)-2,6b-Difluoro-7-hydroxy-8b-(2-hydroxyacetyl)-6a,8a-dimethyl-10-(2-(((2-oxotetrahydrofuran-3-yl)thio)methyl)pyrimidin-5-yl)-1,2,6a,6b,7,8,8a,8b,11a, 12,12a,12b-dodecahydro-4H-naphtho[2',1':4,5]indeno[1,2-d][1,3]dioxol-4-one]", "EC50": 6.92}
{"smiles": "C[C@]12C=CC(=O)C=C1CC[C@H]1[C@@H]3C[C@H]4OC(c5ccc(COC6COC(=O)C6)cc5)O[C@@]4(C(=O)CO)[C@@]3(C)C[C@H](O)[C@@]12F", "note": "(stereo partly drawn) [Compound 19, (6aS,6bR,7S,8aS,8bS,11aR,12aS,12bS)-6b-Fluoro-7-hydroxy-8b-(2-hydroxyacetyl)-6a,8a-dimethyl-10-(4-(((5-oxotetrahydrofuran-3-yl)oxy)methyl)phenyl)-1,2,6a,6b,7,8,8a,8b,11a,12,12a,12b-do decahydro-4H-naphtho[2',1':4,5]indeno[1,2-d][1,3]dioxol-4-one]", "EC50": 0.91}
{"smiles": "C[C@]12C=CC(=O)C=C1[C@@H](F)C[C@H]1[C@@H]3C[C@H]4OC(C5CCC(NC(=O)C6COC(=O)C6)CC5)O[C@@]4(C(=O)CO)[C@@]3(C)C[C@H](O)[C@@]12F", "note": "(stereo partly drawn) [Compound 3, N-(4-((2S,6aS,6bR,7S,8aS,8bS,11aR,12aS,12bS)-2,6b-Difluoro-7-hydroxy-8b-(2-hydroxyacetyl)-6a,8a-dimethyl-4-oxo-2,4,6a,6b,7,8,8a,8b,11a,12,12a,12b-dodecahydro-1H-naphtho[2',1':4,5]indeno[1,2-d][1,3]dioxol-10-yl)cyclohexyl)-5-oxotetrahydrofuran-3-carboxamide]", "EC50": 17.6}
{"smiles": "C[C@]12C=CC(=O)C=C1CC[C@H]1[C@@H]3C[C@H]4OC(c5ccc(CS(=O)(=O)C6CCOC6=O)cc5)O[C@@]4(C(=O)CO)[C@@]3(C)C[C@H](O)[C@@]12Cl", "note": "(stereo partly drawn) [Compound 60, (6aS,6bR,7S,8aS,8bS,11aR,12aS,12bS)-6b-Chloro-7-hydroxy-8b-(2-hydroxyacetyl)-6a,8a-dimethyl-10-(4-(((2-oxotetrahydrofuran-3-yl)sulfonyl)methyl)phenyl)-1,2,6a,6b,7,8,8a,8b,11a,12,12a,12b-dodecahydro-4H-naphtho[2',1':4,5]indeno[1,2-d][1,3]dioxol-4-one]", "EC50": 3.5}
{"smiles": "C[C@]12C=CC(=O)C=C1[C@@H](F)C[C@H]1[C@@H]3C[C@H]4OC(c5ccc(CSC6CCOC6=O)cn5)O[C@@]4(C(=O)CO)[C@@]3(C)C[C@H](O)[C@@]12F", "note": "(stereo partly drawn) [Compound 49, (2S,6aS,6bR,7S,8aS,8bS,11aR,12aS,12bS)-2,6b-Difluoro-7-hydroxy-8b-(2-hydroxyacetyl)-6a,8a-dimethyl-10-(5-(((2-oxotetrahydrofuran-3-yl)thio)methyl)pyridin-2-yl)-1,2,6a,6b,7,8,8a,8b,11a,12, 12a,12b-dodecahydro-4H-naphtho[2',1':4,5]indeno[1,2-d][1,3]dioxol-4-one]", "EC50": 1.12}
{"smiles": "C[C@]12C=CC(=O)C=C1CC[C@H]1[C@@H]3C[C@H]4OC(c5ccc(C[S+]([O-])C6CCOC6=O)cc5)O[C@@]4(C(=O)CO)[C@@]3(C)C[C@H](O)[C@@]12F", "note": "(stereo partly drawn) [Compound 56, (6aS,6bR,7S,8aS,8bS,11aR,12aS,12bS)-6b-Fluoro-7-hydroxy-8b-(2-hydroxyacetyl)-6a,8a-dimethyl-10-(4-(((2-oxotetrahydrofuran-3-yl)sulfinyl)methyl)phenyl)-1,2,6a,6b,7,8,8a,8b,11a,12,12a,12b-dodecahydro-4H-naphtho[2',1':4,5]indeno[1,2-d][1,3]dioxol-4-one]", "EC50": 1.56}
